Experimental data: patent US20230302022A1, “PREVENTING OR MITIGATING CHEMOTHERAPY INDUCED ALOPECIA USING VITAMIN D” (priority 2016, published 2023)
Several values for one entry are separate records, joined by “and”; a condition that tells them apart may be missing. Equal entries are not always repeated. Entries after “also recorded” stand apart in the source; their conditions may differ.

What was measured:
HEKa cells = test: HEKa keratinocyte growth / viability assay, with and without chemotherapy drugs; assay type: cell-based, human
Description: All experiments were conducted in 96-well plate format. Each well contained the same amount of HEKa cells in about 100 μL of media (usually between 2,000-5,000 cell/well). Calcitriol was dissolved in ethanol to make a stock solution. The stock solution was serially diluted 1:2 in the growth media, covering a range of between 4.0 μg/mL to about 15.5 ng/mL (9 test concentrations). […] All experiments were conducted in duplicates.
In these experiments, a selected commercial drug was serially diluted, starting at a concentration 4-times higher than the final desired concentration for cell incubation.
The drug treatment period was usually three days. At the end of the three days, the background OD of the 96-well plate was read at 280 nm, before 20 μL of the “Substrate Cell Titer 96 Aqueous One Solution Reagent” (Promega) was added to each well. The plate was returned to the 37° C. incubator, and its OD at 490 nm was read each hour until an OD of approximately 1.5 was reached. The net OD increase was calculated by subtracting the pre-substrate OD reading.
The impact of the drug on the cells was calculated by comparing the OD at different concentrations in relation to the OD of the control wells (without the drug). The results of the Net OD as a function of drug concentration was plotted and used to determine ED50 values.
Then these pretreated cells were utilized to set up the cell based assay.
Three commonly used chemotherapy drugs (doxorubicin, cisplatin and erlotinib) were selected to evaluate calcitriol treated cells. […] In these experiments, the commercial drugs were serially diluted, starting at a concentration 4-times higher than the final desired concentration for cell incubation.

[1] = tested on: SkBr-3 (breast adenocarcinoma cancer, Her2 overexpressed); test: Cell growth / viability assay, SkBr-3; assay type: cell-based
Description: The drug treatment period was usually three days. At the end of the three days, the background OD of the 96-well plate was read at 280 nm, before 20 μL of the “Substrate Cell Titer 96 Aqueous One Solution Reagent” (Promega) was added to each well. […] The net OD increase was calculated by subtracting the pre-substrate OD reading. The impact of the drug on the cells was calculated by comparing the OD at different concentrations in relation to the OD of the control wells (without the drug). The results of the Net OD as a function of drug concentration was plotted and used to determine ED50 values.

[2] = Phase I study: serum levels of calcitriol (PK); assay type: in vivo, human; set-up: unit not given here; conditions: individual patients
Description: Pharmacokinetics (all patients). For the purpose of pharmacokinetic studies (PKs), blood samples will be collected on Day 1 of topical treatment at the following time points: pre-dose, at 2 hours (+/−30 minutes), 4 hours (+/−30 minutes), and 8 hours (+/−1 hour post dose) after a single application on the morning of Day 1. The second application of drug product will be applied 10-14 hours after the initial application and after the 8 hour PK sample. Thereafter, topical application frequency will be twice daily, morning and night. Subsequently, a PK sample will be taken 12 hours (+/−2 hours) after the last dose of each 28 day treatment, before the first application of Day 1 of the next 28 day treatment cycle. This schedule will continue for three consecutive 28 day topical treatment cycles. (PKs will be drawn at weeks 1, 5, 9, and 13. In addition if patients are still on study, a PK will also be drawn at week 54.) Vital signs will be obtained approximately 5 minutes before each blood collection, and the actual collection times will be recorded.
At each collection, collect blood by venipuncture in a serum separator tube(s). Centrifuge at 1200 RCF for 10±5 minutes, and aliquot 1.5 mL of serum each into 2 labeled externally threaded cryogenic vials and immediately freeze. […] Serum samples will be transported with a sufficient amount of dry ice to keep the samples frozen until arrival.
Each patient underwent PK analysis, adverse event monitoring, patient self-assessment diaries (1-10 scale), and blinded photographic assessments. […] Toxicity was determined on a weekly basis during Cycle 1 (i.e., the first 28 days of topical agent application) and subsequently every four weeks. Patients were managed with adequate safety (adverse event) monitoring and pharmacokinetic (PK) analysis in order to determine levels of exposure.

[3] = tested on: EMT-6 murine breast tumor; conditions: topical pretreatment + cyclophosphamide vs either agent alone; cited from earlier work
[4] = 0.1 μg/mL calcitriol, low dosage levels

Q: What does the source list for C=C1/C(=C\C=C2/CCC[C@]3(C)[C@@H]([C@H](C)CCCC(C)(C)O)CC[C@@H]23)C[C@@H](O)C[C@@H]1O [Calcitriol, (5Z,7E)-9,10-secocholesta-5,7.10(19Hriene-1 a,33.25-triol]?
A: protective effect against 5-FU (HEKa cells; 0.1 μg/mL calcitriol): protects; also recorded: mild protective effect; also recorded: some levels of protection; protective effect against doxorubicin (HEKa cells; 0.1 μg/mL calcitriol): did not appear to provide a significant protective effect; protective effect against gemcitabine (HEKa cells; 0.1 μg/mL calcitriol): mild protective effect; protective effect against irinotecan (HEKa cells; 0.1 μg/mL calcitriol): positive protective effect; protective effect against paclitaxel (Paxlitaxol) (HEKa cells; 0.1 μg/mL calcitriol): some protective effects; protective effect against tamoxifen (HEKa cells; 0.1 μg/mL calcitriol): weak; HEKa growth after prolonged calcitriol exposure (HEKa cells; 0.1 μg/mL calcitriol for two cell passages): stopped growing; protection against carboplatin (HEKa cells; [4]): moderate level of protection; protection against cisplatin (HEKa cells; [4]): moderate level of protection; protective effect against kinase inhibitor drugs (erlotinib, gefitinib, sorafenib, dasatinib, staurosporin) (HEKa cells; 0.1 μg/mL calcitriol, low drug dosage levels): protected the HEKa cells; interaction (synergy) between calcitriol and commercial drugs (HEKa cells; 0.1 μg/mL calcitriol, 5-FU, doxorubicin, tamoxifen, irinotecan, paclitaxel, carboplatin, staurosporin, vincristine, cisplatin, erlotinib, gemcitabine, imatinib, gefitinib, sorafenib, dasatinib): no interaction; chemoprotective effect: pre-treatment group vs simultaneous treatment group (HEKa cells; 0.1 μg/mL calcitriol, doxorubicin, cisplatin, erlotinib): nearly identical; stimulation of HEKa cell growth (HEKa cells; lowest levels of calcitriol (tested range about 0.008-2.0 μg/mL)): 10-20%; calcitriol concentration at which HEKa cell growth is inhibited (HEKa cells; tested range about 0.008-2.0 μg/mL): ≥ 1.0 µg/mL; effect of calcitriol on cell growth [1]: no significant growth promoting or growth inhibiting effects; effect of calcitriol on the cytotoxic effect of Doxorubicin [1]: does not appreciably alter; also recorded: did not appear to appreciably alter; Serum Levels of Calcitriol ([2]; 5 μg/mL, Week 1, Hour 0 (pre-dose)): 43.8 and 47.9 and 55.3; Serum Levels of Calcitriol ([2]; 5 μg/mL, Week 1, Hour 2): 38.8 and 48.4 and 46.2; Serum Levels of Calcitriol ([2]; 5 μg/mL, Week 1, Hour 4): 45 and 51 and 58.7; Serum Levels of Calcitriol ([2]; 5 μg/mL, Week 1, Hour 8): 33.2 and 44.4 and 39.5; Serum Levels of Calcitriol ([2]; 5 μg/mL, Week 5, Hour 0): 57.5 and 49.6 and 61.8; Serum Levels of Calcitriol ([2]; 5 μg/mL, Week 9, Hour 0): 63.2 and 46.5; Serum Levels of Calcitriol ([2]; 5 μg/mL, Week 13, Hour 0): 56 and 54.6; Serum Levels of Calcitriol ([2]; 10 μg/mL, Week 1, Hour 0 (pre-dose)): 37.7 and 60 and 32; Serum Levels of Calcitriol ([2]; 10 μg/mL, Week 1, Hour 2): 32.9 and 59 and 33; Serum Levels of Calcitriol ([2]; 10 μg/mL, Week 1, Hour 4): 36.7 and 57 and 31; Serum Levels of Calcitriol ([2]; 10 μg/mL, Week 1, Hour 8): 50 and 28; Serum Levels of Calcitriol ([2]; 10 μg/mL, Week 5, Hour 0): 83.2 and 32 and 44; Serum Levels of Calcitriol ([2]; 10 μg/mL, Week 9, Hour 0): 41; Serum Levels of Calcitriol ([2]; 10 μg/mL, Week 13, Hour 0): 25.9; Serum Levels of Calcitriol ([2]; 20 μg/mL, Week 1, Hour 0 (pre-dose)): 110 and 33.7 and 41 and 46.8 and 40; Serum Levels of Calcitriol ([2]; 20 μg/mL, Week 1, Hour 2): 90 and 38 and 54.1 and 40; Serum Levels of Calcitriol ([2]; 20 μg/mL, Week 1, Hour 4): 85 and 22.4 and 39 and 50.1 and 41; Serum Levels of Calcitriol ([2]; 20 μg/mL, Week 1, Hour 8): 65 and 26.4 and 38 and 53.7 and 39; Serum Levels of Calcitriol ([2]; 20 μg/mL, Week 5, Hour 0): 27.3 and 98 and 56.4; Serum Levels of Calcitriol ([2]; 20 μg/mL, Week 9, Hour 0): 64.9 and 37.7; Serum Levels of Calcitriol ([2]; 40 μg/mL, Week 1, Hour 0 (pre-dose)): 44.7; Serum Levels of Calcitriol ([2]; 40 μg/mL, Week 1, Hour 2): 75.2 and 67.1; Serum Levels of Calcitriol ([2]; 40 μg/mL, Week 1, Hour 4): 56.1 and 68.4; Serum Levels of Calcitriol ([2]; 40 μg/mL, Week 1, Hour 8): 30.1 and 66.9; Serum Levels of Calcitriol ([2]; 40 μg/mL, Week 9, Hour 0): 37.3; Serum Levels of Calcitriol ([2]; 40 μg/mL, Week 13, Hour 0): 92 and 46.7; Serum Levels of Calcitriol ([2]; 60 μg/mL, Week 1, Hour 0 (pre-dose)): 29.1 and 36.4; Serum Levels of Calcitriol ([2]; 60 μg/mL, Week 1, Hour 2): 21.3 and 38.5 and 42; Serum Levels of Calcitriol ([2]; 60 μg/mL, Week 1, Hour 4): 24.7 and 41.2 and 42.9; Serum Levels of Calcitriol ([2]; 60 μg/mL, Week 1, Hour 8): 23.3 and 39.4 and 41.5; Serum Levels of Calcitriol ([2]; 60 μg/mL, Week 5, Hour 0): 65.4 and 81.6; Serum Levels of Calcitriol ([2]; 60 μg/mL, Week 9, Hour 0): 60.7 and 61.5; Serum Levels of Calcitriol ([2]; 60 μg/mL, Week 13, Hour 0): 45; Serum Levels of Calcitriol ([2]; 80 μg/mL, Week 1, Hour 0 (pre-dose)): 28.3 and 29.4 and 55.7; Serum Levels of Calcitriol ([2]; 80 μg/mL, Week 1, Hour 2): 31.8 and 35.6 and 64.8; Serum Levels of Calcitriol ([2]; 80 μg/mL, Week 1, Hour 4): 29.6 and 42.1 and 61.4; Serum Levels of Calcitriol ([2]; 80 μg/mL, Week 1, Hour 8): 36.6 and 58.9; Serum Levels of Calcitriol ([2]; 80 μg/mL, Week 5, Hour 0): 95.5; rate of tumor growth [3]: greater reduction in the rate of tumor growth
